Measurements: US20110306035A1, “Methods and Compositions for Detection of a Pathogen, Disease, Medical Condition, or Biomarker Thereof” (priority 2008, published 2011)
Where “and” joins values, the source holds several entries; their conditions need not be identical. Equal values may be shown once. Square brackets hold non-standard residues; d marks the D form. Peptide text beside a SMILES is read from it. * marks the point of attachment. Sta = CC(C)C[C@H](N)[C@@H](O)CC(=O)O; pNA = O=[N+]([O-])c1ccc(N*)cc1; Isovaleryl = CC(C)CC(=O)*; MeOSuc = COC(=O)CCC(=O)*

Legend:
[1] = test system: non specific proteolytic activity of the nasal wash specimen; experiment: Background noise in nasal wash specimen pool (HRV assay, PEP1); assay type: biochemical; conditions: 4 μM PEP1; 5 min
Procedure: (§1) All inhibitors were dissolved at 100×, aliquoted, stored and used according to the manufacturers' instructions. No freeze thaw cycles were imposed on the inhibitors. Prior to starting the assay by addition of substrate, 10 μl of the cocktail or individual inhibitor was incubated for 5 min with 90 μl of the sample/buffer+ HRV protease.
(§2) To test the effect of the inhibitors on protease activity (Buffer+3C) and on background noise present in a nasal wash specimen pool, reaction rates were compared with or without the inhibitors in question (Table 12). Reactions were performed at 4 μM PEP1 and 50 nM recombinant HRV 3C protease for 5 min under starting buffer environment. A nasal wash specimen pool of four HRV negative specimens by RT-PCR was used due to insufficient volume from an individual specimen and to reproduce equal conditions throughout the experiments.
(§3) Results with and without inhibitory cocktail and with cocktail+recombinant HRV 3C protease are shown for both the specimen pool (FIG. 21A) and human WBC at ˜1×10^6 cell/ml (FIG. 21B). […] Spiking of recombinant HRV 3C protease to reactions with the inhibitory cocktail induced specific HRV protease activities at normal rates. Reactions were performed with 4 μM PEP1 and 50 nM recombinant HRV 3C protease where indicated (by +3C). The data are representative of two independent repeats.

[2] = molecular target: T1, recombinant HRV 3C protease (Human rhinovirus 14, UniProt P03303); experiment: HRV 3C protease activity with inhibitors (Buffer+3C, PEP1); assay type: biochemical; conditions: 4 μM PEP1; 50 nM recombinant HRV 3C protease
T1 construct: Reactions were performed at 4 μM PEP1 and 50 nM recombinant HRV 3C protease
Procedure: as §1, §2, §3

[3] = molecular target: T2, Recombinant protease from enterovirus strain Echo (Echovirus 30, UniProt Q9WN78); experiment: Enterovirus assay optimization with recombinant Echo protease (plates, tubes, buffer, Na2SO4, substrate concentration, diluent); assay type: biochemical; conditions: for enzymatic activity: 0.25 uM substrate
T2 construct: Phosphoramidon was tested using the Echovirus 3C recombinant
Procedure: • Inhibitor Cocktail: Inhibitors cocktail I10 • Enzyme dilution buffer: −25 mM HEPES pH 7.5, 150 mM NaCl, 1 mM EDTA, 10% Glycerol, 0.5 mg/ml BSA, 1M Sucrose, 0.1% Sodium azid. • 2× reaction buffer, Buffer B: 50 mM HEPES, 10 mM EDTA, 10 mM EGTA, 1.2M Na2SO4, sodium azide 0.1%, pH 8.5 • Artificial CSF: NaCl 125 mM, KCl 2.5 mM, MgCl 1 mM, NaH2PO4 1.25 mM, CaCl2 2 mM, Glucose 2.5 mM, NaHCO3 25 mM, 0.1% Sodium azide, HEPES 25 mM, pH 7.45. • Enzyme: Recombinant protease from enterovirus strain “Echo” [dilution 1:18 • Substrate: Camb-2.3, 1 mM, Camb-2.4, 2 mM. (Different batches for the same Camb2 sequence) • HEPES Buffer: HEPES 25 mM • NB tubes: Sigma Cat #Z666505 • Amber tubes: USA scientific Inc. Cat. 1620-2707 • 96 well Plate: Dark bottom NB plate—Greiner Cat. 655900
• 1. Add artiCSF±HEPES buffer to plate • 2. Prepare 400 ul HEPES buffer±RB+substrate (camb2.3 and 2.4) in both amber and NB tubes. • 3. Add enzyme to wells • 4. Add HEPES buffer±RB+substrate to wells with multichannel pipette.
The reaction buffer is a part of the enterovirus test kit of the invention. The camb-2 substrate is dissolved in the reaction buffer. The reaction buffer contains different salts to allow the tested enzyme to work at the optimal conditions. The current reaction buffer composition is: HEPES pH 7.5, 300 mM NaCl, 10 mM EDTA, 10 mM EGTA, 10% Glycerol, 1.8M Na2SO4, 0.1% Sodium azide. The amount of salt in the reaction buffer is high and allows optimal enzymatic activity. However, under these conditions, substrate solubility is affected. Thus, the reaction buffer was improved to increase substrate solubility without reducing enzymatic activity of the tested 3C protease.
300 mM NaCl and 10% glycerol was removed from the reaction buffer and several reduced concentrations of Na2SO4 (starting at 0.9M) were tested in order to determine the minimal salt requirements of the assay (Tables 31-34). Experiments were repeated at least three times by two different scientists.
CSF sample was incubated with 50 nM Echo protease and 2× reaction buffer with 0.6M Na2SO4. Also included were 3 blanks and 9 positive control repetitions.
The effect of reduction in substrate (camb2) concentration and increase in measurement time was tested. The experiment was performed at a final substrate (camb2.5) concentrations of 1, 0.5, 0.25 and 0.125 μM and data analysis was made at different time intervals: 1.5-5, 5-12 and 5-22 min (FIGS. 27A-C).
Sodium sulfate generally has an ambivalent effect: it increase 3C protease activity and reduces substrate solubility. Once it was decided that the substrate concentration would be reduced to 0.25 uM and results analyzed at between 5-10 min, the Na2SO4 concentration was optimized. […] 0.6-0.4M Na2SO4 was tested under the new assay conditions.
• Data analysis was performed between 5-10 min. • The assay activity was measured in triplicates by three scientists. The results in Table 51 are the average of the three triplicates.
To examine the effect of substrate dilution in DMSO vs. DDW under the new assay conditions, substrate stock (1 mM in DMSO) was diluted 1:8 in DMSO or in DDW to yield the working stock. The working stocks were further diluted 1:250 in 2× RB for a concentration of 0.5 uM (0.25 uM final in the well).
The assay activity was measured in triplicates by three scientists. The results in Table 52 are the average of the three triplicates.

PSA = PSA (Homo sapiens, UniProt P07288); conditions: in the presence of 1.3M Na2SO4; cited from earlier work
a-Chymotrypsin Type IV = molecular target: T3, a-Chymotrypsin Type IV (Bos taurus, UniProt P00766, DEL14-15/DEL147-148); experiment: Competition inhibition of chymotrypsin by two substrates; assay type: biochemical; conditions: Sub.-1 50 nM, Enzyme 100 pg/ml
T3 construct: purchased
Procedure: • Dilution and reaction Buffer: HEPES 100 mM pH=7.5. • Substrate 1 (Sub.-1) Camb-2.4 (a batch of Camb2 substrate): FRET substrate based on Alexa 532 fluorophore. • Substrate 2 (Sub.-2): Commercially available colorimetric base (420NM) a-Chymotrypsin substrate. Dissolve in 1:1 HEPES/DMSO to 20 mm. additional 1:10 dilution was done in HEPES buffer. • Enzyme—a-Chymotrypsin: Commercially available a-Chymotrypsin Type IV was diluted in HEPES buffer to a stock of 20 ug/ml. Fluorimeter: DMV, Polar-Star Galaxy. Parameters: • Ex. […]. • Temprature RT. • Total reading Time 10 min. Gain 90
• Solution-1: HEPES buffer. • Solution-2: Substrate-1 stock was diluted 1:10 in 1000 ul HEPES to give a 2× solution of 100 nM. • Solution-3, a-d: Substrate-2 stock was serially diluted 1:10 with HEPES and 10 ul of each dilution was added into 40 ul of HEPES. a-400 uM, b-40 uM, c-4 uM, d-400 nM (10× solutions) • Solution-4: Enzyme stock was diluted 1:20 into 300 ul of HEPES to give a 10× solution.
Using a multi-Channel pipette, the above Solutions were added into a non binding blacked bottom 96 wells plat, using columns 1-6 of rows A-C. 30 ul Solution-1 and 50 ul Solution-2 were added to each well. Into rows A-C, 10 ul of Solution-1 was added to columns 1 and 2, 10 ul Solution-3a was added to column 3, 10 ul Solution-3b was added to column 4, 10 ul Solution-3c was added to column 5 and 10 ul Solution-3d was added to column 6. Into rows A-C. 10 ul of Solution-1 was added to columns 1, 10 ul of Solution-4 was added to columns 2-6. Fluorimertic reading was then started.

T1 sequence (P03303 1538-1719): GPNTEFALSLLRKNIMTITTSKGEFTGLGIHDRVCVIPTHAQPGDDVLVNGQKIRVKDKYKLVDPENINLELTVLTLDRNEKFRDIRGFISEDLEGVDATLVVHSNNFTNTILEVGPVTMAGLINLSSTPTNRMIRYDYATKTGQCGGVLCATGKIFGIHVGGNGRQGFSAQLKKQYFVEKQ
T2 sequence (Q9WN78 1550-1732): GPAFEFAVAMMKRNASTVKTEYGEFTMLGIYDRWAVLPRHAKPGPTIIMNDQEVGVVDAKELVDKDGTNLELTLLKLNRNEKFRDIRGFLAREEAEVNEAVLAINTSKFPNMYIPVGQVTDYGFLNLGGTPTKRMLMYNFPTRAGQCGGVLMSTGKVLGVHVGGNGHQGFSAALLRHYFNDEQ
Chain of PSA (P07288 25-261): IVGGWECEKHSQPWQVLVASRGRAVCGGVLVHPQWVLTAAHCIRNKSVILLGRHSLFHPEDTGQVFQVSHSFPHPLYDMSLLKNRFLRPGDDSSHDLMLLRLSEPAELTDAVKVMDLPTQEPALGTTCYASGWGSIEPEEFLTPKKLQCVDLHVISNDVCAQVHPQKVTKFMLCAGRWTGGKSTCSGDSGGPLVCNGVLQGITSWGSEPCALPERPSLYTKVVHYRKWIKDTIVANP

CC(C)C[C@H](NC(=O)[C@@H](O)[C@H](N)Cc1ccccc1)C(=O)O [Bestatin]
effect on the non specific proteolytic activity of the nasal wash specimen [1]: no effect | inhibition of HRV 3C protease activity [2]: did not inhibit

CC(C)C[C@H](NC(=O)[C@H]1O[C@@H]1C(=O)O)C(=O)NCCCCN=C(N)N [E-64]
inhibition of HRV 3C protease activity [2]: no inhibition

CC(C)[C@@H]1C(=O)N(S(C)(=O)=O)[C@@H]2CCN(C(=O)/C=C/CN3CCCCC3)[C@H]21.Cl [GW311616A]
inhibition of HRV 3C protease activity [2]: did not inhibit

O=S(=O)([O-])[O-].[Na+].[Na+] [Na2SO4]
Positive control reaction rate, 0.4M Na2SO4, Averages ± SE ([3]; 0.4M Na2SO4, average of all experiments, analysis 5-10 min): 444 ± 75 RFU/min | enzymatic activity ([3]; 0.4M sodium sulfate, analysis 5-10 min): 444 | Positive control reaction rate, 0.5M Na2SO4, Averages ± SE ([3]; 0.5M Na2SO4, average of all experiments, analysis 5-10 min): 703 ± 56 RFU/min | enzymatic activity ([3]; 0.5M sodium sulfate, analysis 5-10 min): 700 | Positive control reaction rate, 0.6M Na2SO4, Averages ± SE ([3]; 0.6M Na2SO4, average of all experiments, analysis 5-10 min): 825 ± 31 RFU/min | Positive control reaction rate, 0.6M Na2SO4 ([3]; 0.6M Na2SO4 final, recombinant Echo protease positive control, 0.25 uM camb2.5 substrate, data analysis 5-10 min, single experiments (EXP)): 679 RFU/min and 918 RFU/min and 921 RFU/min and 739 RFU/min and 770 RFU/min and 862 RFU/min and 890 RFU/min and 824 RFU/min | enzymatic activity ([3]; 0.6M sodium sulfate, analysis 5-10 min): 825 | increase of PSA photolytic activity (PSA): > 103 fold

CC(C)CC(=O)N[C@H](C(=O)N[C@H](C(=O)N[C@@H](CC(C)C)[C@@H](O)CC(=O)N[C@@H](C)C(=O)N[C@@H](CC(C)C)[C@@H](O)CC(=O)O)C(C)C)C(C)C [Pepstatin A] (Isovaleryl-VV[Sta]A[Sta]-OH)
effect on the non specific proteolytic activity of the nasal wash specimen [1]: no effect | inhibition of HRV 3C protease activity [2]: did not inhibit

Ac-DEVD-CHO
effect on the non specific proteolytic activity of the nasal wash specimen [1]: no effect

Heparin
inhibition of HRV 3C protease activity [2]: did not inhibit

M-Suc-Ala-Ala-Pro-Phe-p-Nitr (MeOSuc-AAPF-pNA; SMILES COC(=O)CCC(=O)N[C@@H](C)C(=O)N[C@@H](C)C(=O)N1CCC[C@H]1C(=O)N[C@@H](Cc1ccccc1)C(=O)Nc1ccc([N+](=O)[O-])cc1) [Sub.-2, Commercially available colorimetric a-Chymotrypsin substrate]
Inhibition % (a-Chymotrypsin Type IV; Sub.-2 40 nM): 10% | Rate FU/min (Average) (a-Chymotrypsin Type IV; Sub.-2 40 nM): 18000 FU/min | Inhibition % (a-Chymotrypsin Type IV; Sub.-2 400 nM): 20% | Rate FU/min (Average) (a-Chymotrypsin Type IV; Sub.-2 400 nM): 16000 FU/min | Inhibition % (a-Chymotrypsin Type IV; Sub.-2 4 uM): 40% | Rate FU/min (Average) (a-Chymotrypsin Type IV; Sub.-2 4 uM): 12000 FU/min | Inhibition % (a-Chymotrypsin Type IV; Sub.-2 40 uM): 55% | Rate FU/min (Average) (a-Chymotrypsin Type IV; Sub.-2 40 uM): 9000 FU/min
